Experimental data from article PMC11058275, “Targeted potent antimicrobial and antitumor oxygen-heterocyclic-based pyran analogues: synthesis and computational studies” (Scientific Reports, 2024).
≈ marks a conversion by molar mass, not a printed value. Like-named read-outs stand apart in the source and are kept apart here.

Key:
MCF-7 (breast cancer) [1] = conditions: values marked b, read-out: IC50 Cancerotoxicity MCF-7; cited from earlier work
[2] = test system: Staphylococcus aureus (ATCC 6538); experiment: Agar diffusion antibacterial screening (inhibition zone); format: cell-based; conditions: ATCC6538, S. aureus, 1 mg/mL, Mueller–Hinton agar, read-out: Diameter of inhibition zone
Description: (§1) The antibacterial activity of β-enamionitriles (4a-q) was screened using Mueller–Hinton agar medium for bacteria in an agar diffusion methodology. Ciprofloxacin (1 mg/mL) was the reference antibiotic drug used in the analysis of collections that included four gram-positive species of multi drug resistant pathogenic bacteria: Staphylococcus aureus (MRSA) (ATCC 6539), Staphylococcus aureus (ATCC 6538), Bacillus cereus (ATCC 10987), Bacillus subtilis (ATCC 6633), and two gram-negative species of multi drug resistant pathogenic bacteria Klebsiella pneumonia (ATCC 13883) and Escherichia coli (ATCC 8739). […] Using a 1 mg/mL concentration of compounds (4a-q), the minimum zone of inhibition (IZ, the area around the antimicrobial agent where bacterial growth is prevented) was established in mm ± standard deviation beyond the well diameter (6 mm). […] The synthetic compound's inhibitory effects on evaluation against these organisms are depicted in Fig. 9 and Table 1.
(§2) Compound 4a-q was screened for its in vitro antimicrobial activities against pathogenic bacteria species using the standard antibiotics Ampicillin, Gentamycin and Ketoconazole as reference drugs as reported previously. The minimum inhibitory concentration (MIC) was determined as previously reported. The antimicrobial activities were performed at the Regional Centre for Mycology & Biotechnology (RCMP), Al-Azhar University.

[3] = test system: Escherichia coli (ATCC 8739); experiment: as above; format: cell-based; conditions: ATCC8739, E. coli, 1 mg/mL, Mueller–Hinton agar, read-out: Diameter of inhibition zone
Description: as §1, §2

[4] = test system: Bacillus subtilis (ATCC 6633); experiment: as above; format: cell-based; conditions: ATCC6633, B. subtilis, 1 mg/mL, Mueller–Hinton agar, read-out: Diameter of inhibition zone
Description: as §1, §2

[5] = test system: Staphylococcus aureus (MRSA) (ATCC 6539); experiment: as above; format: cell-based; conditions: read-out: Diameter of inhibition zone
Description: as §1, §2

[6] = test system: Bacillus cereus (ATCC 10987); experiment: as above; format: cell-based; conditions: ATCC10987, B. cereus, 1 mg/mL, Mueller–Hinton agar, read-out: Diameter of inhibition zone
Description: as §1, §2

[7] = test system: Klebsiella pneumonia (ATCC 13883); experiment: as above; format: cell-based; conditions: Klebsiella pneumoniae, ATCC13883, K. pneumonia, 1 mg/mL, Mueller–Hinton agar, read-out: Diameter of inhibition zone
Description: as §1, §2

[8] = test system: HepG-2 (hepatocellular carcinoma); conditions: values marked b, read-out: IC50 Cancerotoxicity HepG-2; cited from earlier work
[9] = test system: HCT-116 (human colon cancer); conditions: values marked b, read-out: IC50 Cancerotoxicity HCT-116; cited from earlier work
[10] = test system: WI-38 (human diploid fibroblasts); experiment: MTT cytotoxicity assay, normal cells; format: cell-based; conditions: WI-38 normal cells, MTT, 24-h incubation, mean ± standard error, read-out: IC50 Normotoxicity WI-38
Description: (§4) The antiproliferative activity of the newly synthesized 1H-benzo[f]chromenes derivatives (4a-q) was examined in three human cancer cell lines: MCF-7 (breast cancer), HCT-116 (human colon cancer), and HepG-2 (hepatocellular carcinoma), as well as the two normal cell lines, HFL-1 (human foetal lung) and WI-38 (human diploid fibroblasts), using the 3-(4,5-dimethylthiazol-2-yl)-2,5-diphenyl tetrazolium bromide (MTT) colorimetric assay[56].
(§5) Compounds 4a-q was initially evaluated for in vitro antitumor activity against three different human cell lines: MCF-7, HCT-116 and HepG-2. In-vitro cytotoxicity evaluation was performed at the Regional Center for Mycology & Biotechnology (RCMP), Al-Azhar University under different concentrations (50, 25, 12.5, 6.25, 3.125, 1.56 and 0 µg/mL); vinblastine and doxorubicin are used as reference cytotoxic compounds.

[11] = test system: HFL-1 (human foetal lung); experiment: MTT cytotoxicity assay, normal cells; format: cell-based; conditions: HFL1, HFL-1 normal cells, MTT, 24-h incubation, mean ± standard error, read-out: IC50 Normotoxicity HFL-1
Description: as §4, §5

[12] = test system: HCT-116 (human colon cancer); experiment: MTT cytotoxicity assay; format: cell-based
Description: as §4, §5

Bacillus subtilis = experiment: MIC, Mueller Hinton broth resazurin assay; format: cell-based; conditions: 24 h, MH broth resazurin
Text: (§3) The minimum inhibitory concentration, or MIC, is the lowest concentration needed to stop bacterial growth. When evaluating how well antimicrobial agents work against various bacterial strains, MIC values are crucial. […] The right dosage of the antimicrobial agent to be used in the treatment of bacterial infections can also be determined with the aid of the MIC value. Table 2 and Fig. 10 show the minimum inhibitory concentration (MIC) of the active compound 4 g against various bacterial strains.
as §2

Klebsiella pneumonia = experiment: MIC, Mueller Hinton broth resazurin assay; format: cell-based; conditions: Klebsiella pneumoniae, 24 h, MH broth resazurin
Text: as §3, §2

Escherichia coli = experiment: MIC, Mueller Hinton broth resazurin assay; format: cell-based; conditions: 24 h, MH broth resazurin
Text: as §3, §2

[13] = test system: Staphylococcus aureus (MRSA); experiment: MIC, Mueller Hinton broth resazurin assay; format: cell-based; conditions: 24 h, MH broth resazurin
Text: as §3, §2

Bacillus cereus = experiment: MIC, Mueller Hinton broth resazurin assay; format: cell-based; conditions: 24 h, MH broth resazurin
Text: as §3, §2

Staphylococcus aureus = experiment: MIC, Mueller Hinton broth resazurin assay; format: cell-based; conditions: 24 h, MH broth resazurin
Text: as §3, §2

MCF-7 (breast cancer) [14] = experiment: MTT cytotoxicity assay; conditions: Homo sapiens
Description: as §4, §5

[15] = test system: HepG-2 (hepatocellular carcinoma); experiment: MTT cytotoxicity assay; format: cell-based; conditions: Homo sapiens
Description: as §4, §5

[16] = MTT, 24-h incubation, mean ± standard error, read-out: IC50 Cancerotoxicity HCT-116
[17] = MCF7, 24 h, read-out: IC50 Cancerotoxicity MCF-7
[18] = HepG2, MTT, 24-h incubation, mean ± standard error, read-out: IC50 Cancerotoxicity HepG-2

| Structure (SMILES) | IC50 (MCF-7 (breast cancer) [1]) | melting point | zone of inhibition at 1000 µg/mL [2] | zone of inhibition at 1000 µg/mL [3] | zone of inhibition at 1000 µg/mL [4] | zone of inhibition at 1000 µg/mL [5] | zone of inhibition at 1000 µg/mL [6] | zone of inhibition at 1000 µg/mL [7] | IC50 [8] | IC50 [9] | IC50 [10] | IC50 [11] | IC50 [12, 16] | IC50 (MCF-7 (breast cancer) [14]; [17]) | IC50 [15, 18] | further results |
| --- | --- | --- | --- | --- | --- | --- | --- | --- | --- | --- | --- | --- | --- | --- | --- | --- |
| COc1ccc2c3c(ccc2c1)OC(N)=C(C#N)C3c1ccc(F)cc1 (stereo not shown) [Compound 4a, 3-Amino-1-(4-fluorophenyl)-8-methoxy-1H-benzo[f]chromene-2-carbonitrile] | 12.7 ± 0.05 µM | 255 to 256 °C | 0 mm | 11 mm | 0 mm | 14 mm | 13 mm | 14 mm | 1.5 ± 0.01 µM | 14.2 ± 0.01 µM |  |  |  |  |  |  |
| COc1ccc2c3c(ccc2c1)OC(N)=C(C#N)C3c1ccc(Cl)cc1 (stereo not shown) [Compound 4d, 3-Amino-1-(4-chlorophenyl)-8-methoxy-1H-benzo[f]chromene-2-carbonitrile] | 8.6 ± 0.29 µM | 246 to 247 °C | 0 mm | 0 mm | 0 mm | 12 mm | 15 mm | 12 mm | 0.8 ± 0.08 µM | 6.9 ± 0.97 µM | 165.5 ± 1.3 µM | 164.4 ± 1.1 µM |  |  |  |  |
| COc1ccc2c3c(ccc2c1)OC(N)=C(C#N)C3c1ccc(Br)cc1 (stereo not shown) [Compound 4e, 3-Amino-1-(4-bromophenyl)-8-methoxy-1H-benzo[f]chromene-2-carbonitrile] | 4.9 ± 0.25 µM | 261 to 262 °C | 0 mm | 0 mm | 0 mm | 12 mm | 14 mm | 10 mm | 1.7 ± 0.13 µM | 2.2 ± 0.58 µM | 165.3 ± 1.2 µM | 189.9 ± 1.1 µM |  |  |  |  |
| COc1ccc2c3c(ccc2c1)OC(N)=C(C#N)C3c1ccc(F)cc1F (stereo not shown) [Compound 4g, 3-Amino-1-(2,4-difluorophenyl)-8-methoxy-1H-benzo[f]chromene-2-carbonitrile] |  | 300 to 301 °C | 23 mm | 14 mm | 21 mm | 17 mm | 20 mm | 16 mm |  |  | 190.1 ± 0.3 µM | 179.4 ± 0.1 µM | 6 ± 0.11 µM | 2.7 ± 0.23 µM | 1.9 ± 0.5 µM | MIC (Bacillus subtilis): 1000 µg/mL (≈ 2740 µM); MIC (Klebsiella pneumonia): 500 µg/mL (≈ 1370 µM); MIC (Escherichia coli): 250 µg/mL (≈ 686 µM); MIC [13]: 500 µg/mL (≈ 1370 µM); MIC (Bacillus cereus): 1000 µg/mL (≈ 2740 µM); MIC (Staphylococcus aureus): 1000 µg/mL (≈ 2740 µM) |
| COc1ccc2c3c(ccc2c1)OC(N)=C(C#N)C3c1cc(Br)cc(Br)c1OC (stereo not shown) [Compound 4n, 3-amino-1-(3,5-dibromo-2-methoxyphenyl)-8-methoxy-1H-benzo[f]chromene-2-carbonitrile] |  | 241 to 242 °C | 0 mm | 0 mm | 0 mm | 14 mm | 13 mm | 11 mm |  |  | 135.4 ± 0.3 µM | 139.5 ± 0.1 µM | 1.2 ± 0.06 µM | 1.4 ± 0.05 µM | 5.6 ± 0.21 µM | IC50 ([12]; given in µg/mL, read-out: IC50 HCT-116): 0.6 ± 0.06 µg/mL; IC50 (MCF-7 (breast cancer) [14]; MCF7, read-out: IC50 MCF-7): 0.7 ± 0.05 µg/mL; IC50 ([15]; HepG2, given in µg/mL, read-out: IC50 HepG-2): 2.9 ± 0.21 µg/mL |
